Data set [1] concerns the target T1, recombinant human Cox-2 (r-hu Cox-2, PGHS-2) (Homo sapiens, UniProt P35354).
T1 construct: made in house; host or cells: baculovirus/Sf9 insect cells (microsomes)
T1 sequence (P35354 18-604): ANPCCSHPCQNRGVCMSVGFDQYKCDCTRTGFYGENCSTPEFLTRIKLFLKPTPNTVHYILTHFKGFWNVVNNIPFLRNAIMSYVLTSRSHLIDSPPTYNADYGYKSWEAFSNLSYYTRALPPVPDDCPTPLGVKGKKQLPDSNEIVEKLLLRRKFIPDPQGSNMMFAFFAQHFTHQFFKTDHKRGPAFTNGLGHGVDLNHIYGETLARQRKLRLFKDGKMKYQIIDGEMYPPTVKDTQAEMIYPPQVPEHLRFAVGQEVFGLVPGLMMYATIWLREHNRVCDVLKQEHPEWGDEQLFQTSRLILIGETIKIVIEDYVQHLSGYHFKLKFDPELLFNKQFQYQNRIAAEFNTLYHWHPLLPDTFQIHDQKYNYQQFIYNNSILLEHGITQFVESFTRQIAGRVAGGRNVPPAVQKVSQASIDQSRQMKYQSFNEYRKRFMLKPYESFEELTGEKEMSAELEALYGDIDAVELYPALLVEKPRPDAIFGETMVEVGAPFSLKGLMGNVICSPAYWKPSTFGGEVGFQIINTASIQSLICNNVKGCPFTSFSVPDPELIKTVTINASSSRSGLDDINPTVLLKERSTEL
As to the kind of experiment: Recombinant human PGHS-2 (r-hu Cox-2) enzyme assay, PGE2 by EIA. In kind it is biochemical. On the procedure: (§1) To compare the mean responses of the treatment groups, analysis of variance was applied. Percent inhibition values were determined by comparing the individual treatment mean values to the mean of the control group. Linear regression was used to estimate IC50's/ED50's in appropriate assays.
(§2) EIA reagents for prostaglandin determination were purchased from Perseptive Diagnostics, (Cambridge, Mass.). Prostaglandin E2 (PGE2) levels in lavage fluids were determined after the samples were dried under nitrogen and reconstituted with assay buffer. PGE2 levels in enzyme assays or cell culture media were measured against standards prepared in the same milieu. The immunoassays were conducted as recommended by the manufacturer. The EIA was conducted in 96 well microtiter plates (Nunc Roskilde, Denmark) and optical density was measured using a microplate reader (Vmax, Molecular Devices Corp., Menlo Park, Calif.).
(§3) Inhibition of prostaglandin biosynthesis in vitro was evaluated using recombinant human Cox-1 (r-hu Cox-1) and Cox-2 (r-hu Cox-2) enzyme assays. […] The reaction was allowed to run for 2.5 minutes at room temperature prior to quenching with HCl and neutralization with NaOH. PGE2 production in the presence and absence of the drug was determined by EIA analysis. The EIA was conducted in 96 well microtiter plates (Nunc Roskilde, Denmark) and optical density was measured using a microplate reader (Vmax, Molecular Devices Corp., Menlo Park, Calif.). EIA reagent for prostaglandin determination were purchased from Perseptive Diagnostics (Cambridge, Mass.). PGE2 levels were measured against standards prepared in the same milieu. The immunoassays were conducted as recommended by the manufacturer.
(§4) The compounds are designated by the Example Number. […] Values for Cox-2 inhibition that are parenthetical indicate IC50 values.

For data set [2], the target named is T2, recombinant human Cox-1 (r-hu Cox-1, PGHS-1) (Homo sapiens, UniProt P23219).
T2 construct: made in house; host or cells: baculovirus/Sf9 insect cells (microsomes)
As to the kind of experiment: Recombinant human PGHS-1 (r-hu Cox-1) enzyme assay, PGE2 by EIA. Format: biochemical. The settings on record: for inhibition at 100 µM: read-out: r-hu COX1 percent inhibition. The protocol: as §1, §2, §3, §4

The mark [3] stands for this setting: at 100 nM, read-out: r-hu COX2 percent inhibition.

Structures are written as SMILES.

T2 sequence (P23219 24-599): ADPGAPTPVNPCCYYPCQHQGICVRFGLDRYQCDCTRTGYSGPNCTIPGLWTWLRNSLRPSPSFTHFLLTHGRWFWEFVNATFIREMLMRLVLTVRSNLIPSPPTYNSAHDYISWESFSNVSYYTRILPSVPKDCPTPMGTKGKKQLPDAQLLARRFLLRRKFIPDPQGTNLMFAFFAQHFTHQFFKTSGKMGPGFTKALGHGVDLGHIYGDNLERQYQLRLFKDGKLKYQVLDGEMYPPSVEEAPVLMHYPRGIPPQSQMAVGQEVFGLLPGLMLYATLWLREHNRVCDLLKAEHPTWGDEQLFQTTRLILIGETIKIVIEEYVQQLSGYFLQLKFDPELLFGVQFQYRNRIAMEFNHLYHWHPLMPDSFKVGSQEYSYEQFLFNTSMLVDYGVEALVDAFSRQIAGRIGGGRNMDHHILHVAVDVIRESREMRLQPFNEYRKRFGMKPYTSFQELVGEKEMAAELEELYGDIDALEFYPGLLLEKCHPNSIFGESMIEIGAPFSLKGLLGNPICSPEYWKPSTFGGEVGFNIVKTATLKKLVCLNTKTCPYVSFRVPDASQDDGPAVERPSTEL

Regarding `CS(=O)(=O)c1ccc(-c2nn3c(c2-c2ccc(F)cc2)OCC=CC3)cc1` [Example 4, 3-(4-Fluorophenyl)-2-(4-methylsulponylphenyl)-5,8-dihydropyrazolo[5,1-b][1,3]oxazepine], the “r-hu COX2 percent inhibition” value in data set [1] (at 10000 nM) is 62 @ 10000%. Moreover, the “r-hu COX1 percent inhibition” value in data set [2] (at 100 μM) is 12 @ 100%.

As to `CS(=O)(=O)c1ccc(-c2nn3c(c2-c2ccc(F)cc2)Oc2ccccc2C3)cc1` [Example 6, 3-(4-Fluorophenyl)-2-(4-(methylsulphonyl)phenyl)-5H-pyrazolo[1,5-b][1,3]-benzoxazine], in data set [1] (at 100 nM), the “r-hu COX2 percent inhibition” value is on record as 82 @ 100%. Moreover, the “r-hu COX1 percent inhibition” value in data set [2] (at 100 μM) is 25 @ 100%.

As to `CS(=O)(=O)c1ccc(-c2c(-c3ccc(F)cc3)c(OCc3ccccc3)nn2Cc2ccccc2)cc1` [Example 7, 4-(4-Fluorophenyl)-5-(4-(methylsulphonyl)phenyl)-3-benzyloxy-1-benzyl-1H-pyrazole], the melting point was in the range of 174 to 175 °C. The inhibition at 0.1 µM in data set [1] (setting [3]) was found to be 42%. The inhibition at 100 µM in data set [2] (at 100 μM) is 26%.

`CS(=O)(=O)c1ccc(-c2c(-c3ccc(F)cc3)c(OCc3ccc(F)cc3)nn2Cc2ccc(F)cc2)cc1` [Example 8, 4-(4-fluorophenyl)-5-(4-(methylsulphonyl)phenyl)-1-(4-fluorobenzyl)-3-((4-fluorobenzyl)oxy)-1H-pyrazole]: the inhibition at 10 µM in data set [1] (at 10000 nM, read-out: r-hu COX2 percent inhibition) came out at 48%. Moreover, in data set [2] (at 100 μM), the inhibition at 100 µM was determined as 29%.

For the compound `C=CCOc1nn(CC=C)c(-c2ccc(S(C)(=O)=O)cc2)c1-c1ccc(F)cc1` [Example 9, 1-allyl-3-(allyloxy)-4-(4-fluorophenyl)-5-(4-(methylsulphonyl)phenyl)-1H-pyrazole], the inhibition at 1 µM in data set [1] (at 1000 nM, read-out: r-hu COX2 percent inhibition) turned out to be 62%. Besides, the inhibition at 100 µM in data set [2] (at 100 μM) worked out at 36%.

Regarding `C=CCn1nc(Oc2ccccc2)c(-c2ccc(F)cc2)c1-c1ccc(S(C)(=O)=O)cc1` [Example 14, 1-Allyl-4-Fluorophenyl-5-(4-(methylsulphonyl)phenyl)-3-phenoxy-1H-pyrazole], the “r-hu COX2 percent inhibition” value in data set [1] (at 10000 nM) is on record as 37 @ 10000%. In data set [2] (at 100 μM), the “r-hu COX1 percent inhibition” value is reported as 45 @ 100%.

As for `CS(=O)(=O)c1ccc(-c2[nH]nc(OC3CCCCC3=O)c2-c2ccc(F)cc2)cc1` (centres unmarked) [Example 15, 2-{[4-(4-Fluorophenyl)-5-(4-methylsulphonylpheny)-1H-pyrazol-3-yl]oxy}cyclohexanone], the “r-hu COX2 percent inhibition” value in data set [1] (at 100 nM) is listed as 47 @ 100%. Further, the “r-hu COX1 percent inhibition” value in data set [2] (at 10 μM) is given as 69 @ 10%.

With `CCn1nc(OCC(=O)c2ccc(F)cc2)c(-c2ccc(F)cc2)c1-c1ccc(OC)cc1` [Example 18, 2-{[1-Ethyl-5-(4-methoxyphenyl)-4-(4-fluorophenyl)-1H-pyrazol-3-yl]oxy}-1-(4-fluorophenyl)ethan-1-one], the melting point lay within 170 to 171 °C. Further, the inhibition at 0.1 µM in data set [1] (setting [3]) is 50%. In addition, in data set [2] (at 100 μM), the inhibition at 100 µM turned out to be 7%.

`Cc1c(C#N)oc2c(-c3ccc(F)cc3)c(-c3ccc(S(C)(=O)=O)cc3)nn12` [Example 54, 2-Cyano-7-(4-fluorophenyl)-3-methyl-6-(4-(methylsulphonyl)phenyl)pyrazolo[5,1-b][1,3]oxazole] displayed a melting point of 236 to 238 °C.

As to `CC(C)(C)c1coc2c(-c3ccc(F)cc3)c(-c3ccc(S(N)(=O)=O)cc3)nn12` [Example 55], in data set [1] (at 100 nM), the “r-hu COX2 percent inhibition” value is 88 @ 100%. In addition, the “r-hu COX1 percent inhibition” value in data set [2] (at 10 μM) is 99 @ 10%.

On to `NS(=O)(=O)c1ccc(-c2nn3c(-c4ccc(F)cc4)coc3c2-c2ccc(F)cc2)cc1` [Example 57, 4-[3,7-Bis(4-fluorophenyl)pyrazolo[5,1-b][1,3]oxazol-6-yl]benzenesulphonamide], for which the melting point was in the range of 235 to 237 °C.

Turning to `CC=CC(=O)c1oc2c(-c3ccc(F)cc3)c(-c3ccc(S(C)(=O)=O)cc3)nn2c1C` [Example 58, 1-[7-(4-Fluorophenyl)-3-methyl-6-(4-(methylsulphonyl)phenyl)pyrazolo[5,1-b][1,3]oxazol-2-yl]but-2-en-1-one], the melting point is 197 to 199 °C.

As for `Cc1c(C#N)oc2c(-c3ccc(F)cc3)c(-c3ccc(S(N)(=O)=O)cc3)nn12` [Example 59, 6-(4-(Aminosulphonyl)phenyl)-2-cyano-7-(4-Fluorophenyl)-3-methyl-pyrazolo[5,1-b][1,3]oxazole], the melting point was in the range of 231 to 232 °C.

Regarding `CS(=O)(=O)c1ccc(-c2nn3ccoc3c2-c2ccc(F)cc2)cc1` [Example 60, 7-(4-Fluorophenyl)-6-(4-(methylsulphonyl)phenyl)pyrazolo[5,1-b][1,3]oxazole], the melting point was in the range of 67 to 70 °C.

As to `CCc1coc2c(-c3ccc(F)cc3)c(-c3ccc(S(C)(=O)=O)cc3)nn12` [Example 61, 3-Ethyl-7-(4-fluorophenyl)-6-(4-(methylsulphonyl)phenyl)pyrazolo[5,1-b][1,3]oxazole], the melting point fell in the range of 177 to 179 °C.

Compound `CCc1coc2c(-c3ccc(F)cc3)c(-c3ccc(S(N)(=O)=O)cc3)nn12` [Example 62, 6-(4-(aminosulphonyl)phenyl)-3-Ethyl-7-(4-fluorophenyl)pyrazolo[5,1-b][1,3]oxazole] registered a melting point of 234 to 236 °C.

Turning to `CS(=O)(=O)c1ccc(-c2c(-c3ccc(F)cc3)c(OCc3c(F)cccc3Cl)nn2Cc2c(F)cccc2Cl)cc1` [Example 64, 1-(2-Chloro-6-fluorobenzyl)-3-[(2-chloro-6-fluorobenzyl)oxy]-4-(4-fluorophenyl)-5-(4-(methylsulphonyl)phenyl)-1H-pyrazole], the melting point lay in the range of 195 to 196 °C.

The compound `CS(=O)(=O)c1ccc(-c2c(-c3ccc(F)cc3)c(=O)n3n2Cc2c(Cl)cccc2-3)cc1` [Example 65, 8-Chloro-2-(4-fluorophenyl)-1-(4-(methylsulphonyl)phenyl)-3H,9H-pyrazolo[1,2-a]indazol-3-one] showed a melting point of 237 to 240 °C.

Compound `CS(=O)(=O)c1ccc(-c2c(-c3ccc(F)cc3)nn3c(-c4ccc(F)cc4)coc23)cc1` [Example 73, 3,6-Bis(4-fluorophenyl)-7-(4-methylsulfonylphenyl)pyrazolo[5,1-b][1,3]oxazole] gave a melting point of 289 to 291 °C.

As to `Cc1c(-c2ccc(F)cc2)oc2c(-c3ccc(S(C)(=O)=O)cc3)c(-c3ccc(F)cc3)nn12` [Example 74, 2,6-Bis(4-fluorophenyl)-3-methyl-7-(4-(methylsulphonyl)phenyl)pyrazolo[5,1-b][1,3]oxazole], the melting point lay in the range of 289 to 291 °C.

For `CS(=O)(=O)c1ccc(-c2c(OCC(=O)c3ccc(F)cc3)nn(CC(=O)c3ccc(F)cc3)c2-c2ccc(F)cc2)cc1` [Example 75, 2-[5-(4-Fluorophenyl)-4-(4-(methylsulphonyl)phenyl)-3-(2-oxo-2-(4-fluorophenyl)ethoxy)-1H-pyrazol-1-yl]-1-(4-fluorophenyl)ethan-1-one], the melting point lay within 191 to 193 °C.

`CCc1coc2c(-c3ccc(S(C)(=O)=O)cc3)c(-c3ccc(F)cc3)nn12` [Example 76, 6-(4-Fluorophenyl)-7-(4-(methylsulphonyl)phenyl)-3-ethylpyrazolo[5,1-b][1,3]oxazole] displayed a melting point of 205 to 208 °C.

For the compound `CCC(=O)COc1nn(CC(=O)CC)c(-c2ccc(F)cc2)c1-c1ccc(S(C)(=O)=O)cc1` [Example 77, 1-[5-(4-Fluorophenyl)-4-(4-(methylsulphonyl)phenyl)-3-(2-oxobutoxy)-1H-pyrazol-1-yl]butan-2-one], the melting point lay in the range of 56 to 58 °C.

`CCn1nc(OCC(=O)C(C)(C)C)c(-c2ccc(S(C)(=O)=O)cc2)c1-c1ccc(F)cc1` [Example 78, 1-[(1-Ethyl-5-(4-fluorophenyl)-4-(4-(methylsulphonyl)phenyl)-1H-pyrazol-3-yl)oxy]-3,3-dimethylbutan-2-one] had a melting point of 63 to 66 °C.
